Values quoted from earlier work as cited in US20160279133A1 (Farmalider, S.A., priority 2015, published 2016).
Structures can show the parent of a compound that is named as a salt.

How the values were obtained:
male sexual dysfunction = settings: administered orally

SMILES | solubility in water | efficacy in the treatment of male sexual dysfunction (male sexual dysfunction)
CCCc1nn(C)c2c(=O)[nH]c(-c3cc(S(=O)(=O)N4CCN(C)CC4)ccc3OCC)nc12 [Sildenafil citrate] | relatively insoluble | 
CCCc1nn(C)c2c(=O)[nH]c(-c3cc(S(=O)(=O)N4CCN(C)CC4)ccc3OCC)nc12 [Sildenafil, 5-[2-ethoxy-5-(4-methylpiperazin-1-yl-sulfonyl)phenyl]-1-methyl-3-n-propyl-1,6-dihydro-7H-pyrazolo[4,3-d]pyrimidin-7-one] |  | effective treatment
